Here are results for 68 molecules from US20090069317A1, “Insecticidal Methods Using 3-Amino-1,2-Benzisothiazole Derivatives” (BASF SE, priority 2005, published 2009).

The subject of experiment [1] is Cotton Aphid (Aphis gossypii). The experiment can be described thus: Cotton aphid (Aphis gossypii) cotyledon dip test, mortality. The class given is in vivo. As to conditions: 120 h, cotton cotyledons dipped, mortality counts after 5 days, read-out: mortality in comparison with untreated controls. The source says: B.1 Cotton Aphid (Aphis gossypii)
(§1) The active compounds were formulated in 50:50 acetone:water and 100 ppm Kinetic® surfactant.
Cotton plants at the cotyledon stage (one plant per pot) were infested by placing a heavily infested leaf from the main colony on top of each cotyledon. The aphids were allowed to transfer to the host plant overnight, and the leaf used to transfer the aphids was removed. The cotyledons were dipped in the test solution and allowed to dry. After 5 days, mortality counts were made.

Experiment [2] deals with Green Peach Aphid (Myzus Persicae). The experiment can be described thus: Green peach aphid (Myzus persicae) pepper leaf dip test, mortality. As to conditions: foliar, 120 h, pepper plant leaves dipped, aphid mortality after 5 days, read-out: mortality in comparison with untreated controls. The class given is in vivo.
Source text: B.2 Green Peach Aphid (Myzus Persicae)
as §1
Pepper plants in the 2nd leaf-pair stage (variety ‘California Wonder’) were infested with approximately 40 laboratory-reared aphids by placing infested leaf sections on top of the test plants. The leaf sections were removed after 24 hr. The leaves of the intact plants were dipped into gradient solutions of the test compound and allowed to dry. Test plants were maintained under fluorescent light (24 hour photoperiod) at about 25° C. and 20-40% relative humidity. Aphid mortality on the treated plants, relative to mortality on check plants, was determined after 5 days.

Consider `O=S1(=O)N=C(N2CCCC2)c2c(Cl)cccc21` [Compound 1], for which the mortality at 300 ppm in experiment [1] is greater than 86%.

Turning to `CN(C)C1=NS(=O)(=O)c2cccc(Cl)c21` [Compound 2], the mortality at 300 ppm in experiment [2] and in experiment [1] was greater than 86% each time.

For `C=CCN(CC=C)C1=NS(=O)(=O)c2cccc(Cl)c21` [Compound 10], the mortality at 300 ppm in experiment [1] was greater than 86%.

Regarding `CCN(CC(F)(F)F)C1=NS(=O)(=O)c2cccc(Cl)c21` [Compound 13], the mortality at 300 ppm in experiment [1] was greater than 86%.

As for `C#CC(C)N(C1=NS(=O)(=O)c2cccc(Cl)c21)C(C)C` (centres unmarked) [Compound 14], the mortality at 300 ppm in experiment [1] was greater than 86%.

Take `COC(OC)C(C)N(C)C1=NS(=O)(=O)c2cccc(Cl)c21` (centres unmarked) [Compound 16]: the mortality at 300 ppm in experiment [1] was greater than 86%.

For the molecule `COC(CN(C)C1=NS(=O)(=O)c2cccc(Cl)c21)OC` [Compound 17], the mortality at 300 ppm in experiment [1] is greater than 86%.

With `COC(C)CN(C)C1=NS(=O)(=O)c2cccc(Cl)c21` (centres unmarked) [Compound 18], the mortality at 300 ppm in experiment [1] was greater than 86%.

As to `CCCN(C)C1=NS(=O)(=O)c2cccc(Cl)c21` [Compound 19], the mortality at 300 ppm in experiment [2] and in experiment [1] was greater than 86% each time.

Turning to `C=CCN(C)C1=NS(=O)(=O)c2cccc(Cl)c21` [Compound 20], the mortality at 300 ppm in experiment [1] is greater than 86%.

Take `C#CCN(C)C1=NS(=O)(=O)c2cccc(Cl)c21` [Compound 21]: in experiment [1], the mortality at 300 ppm is greater than 86%.

Consider `CC(C)CN(C)C1=NS(=O)(=O)c2cccc(Cl)c21` [Compound 22, (4-Chloro-1,1-dioxo-1H-1λ^6-benzo[d]isothiazol-3-yl)-isobutyl-methyl-amine], for which the mortality at 300 ppm in experiment [1] was greater than 86%.

On to `COc1cccc2c1C(N1CCOCC1)=NS2(=O)=O` [Compound 26], for which the mortality at 300 ppm in experiment [1] was greater than 86%.

On to `CCN(CC)C1=NS(=O)(=O)c2cccc(OC)c21` [Compound 27], for which the mortality at 300 ppm in experiment [2] and in experiment [1] was greater than 86% throughout.

`CCN(C1=NS(=O)(=O)c2cccc(OC)c21)C(C)C` [Compound 28]: the mortality at 300 ppm in experiment [2] and in experiment [1] was greater than 86% throughout.

As for `C#CCN(C1=NS(=O)(=O)c2cccc(OC)c21)C(C)C` [Compound 29], the mortality at 300 ppm in experiment [1] was greater than 86%.

As to `CCN(C)C1=NS(=O)(=O)c2cccc(OC)c21` [Compound 30, Ethyl-(4-methoxy-1,1-dioxo-1H-1λ^6-benzo[d]isothiazol-3-yl)-methyl-amine], the mortality at 300 ppm in experiment [2] and in experiment [1] was greater than 86% each time.

Consider `CCN(CC)C1=NS(=O)(=O)c2cccc(OC(F)F)c21` [Compound 31, (4-Difluoromethoxy-1,1-dioxo-1H-1λ^6-benzo[d]isothiazol-3-yl)-diethyl-amine], for which the mortality at 300 ppm in experiment [2] and in experiment [1] was greater than 86% throughout.

`CN(C)C1=NS(=O)(=O)c2cccc(OC(F)F)c21` [Compound 32]: the mortality at 300 ppm in experiment [2] and in experiment [1] was greater than 86% throughout.

In the case of `CCN(C1=NS(=O)(=O)c2cccc(OC(F)F)c21)C(C)C` [Compound 33], the mortality at 300 ppm in experiment [2] and in experiment [1] was greater than 86% in each case.

As for `CCN(C)C1=NS(=O)(=O)c2cccc(OC(F)F)c21` [Compound 34], the mortality at 300 ppm in experiment [2] and in experiment [1] was greater than 86% in each case.

As to `CC(C)N(C1=NS(=O)(=O)c2cccc(OC(F)F)c21)C1CC1` [Compound 35], in experiment [1], the mortality at 300 ppm is greater than 86%.

With `CN(CC#N)C1=NS(=O)(=O)c2cccc(OC(F)F)c21` [Compound 37], the mortality at 300 ppm in experiment [2] and in experiment [1] was greater than 86% in each case.

Take `CCCN(C)C1=NS(=O)(=O)c2cccc(OC(F)F)c21` [Compound 38]: the mortality at 300 ppm in experiment [2] and in experiment [1] was greater than 86% in each case.

Take `C#CCN(C)C1=NS(=O)(=O)c2cccc(OC(F)F)c21` [Compound 39]: the mortality at 300 ppm in experiment [2] and in experiment [1] was greater than 86% in each case.

In the case of `C=CCN(C)C1=NS(=O)(=O)c2cccc(OC(F)F)c21` [Compound 40], the mortality at 300 ppm in experiment [2] and in experiment [1] was greater than 86% in each case.

On to `CC(C)N(C)C1=NS(=O)(=O)c2cccc(OC(F)F)c21` [Compound 41], for which the mortality at 300 ppm in experiment [2] and in experiment [1] was greater than 86% throughout.

Turning to `CC(C)CN(C)C1=NS(=O)(=O)c2cccc(OC(F)F)c21` [Compound 42], the mortality at 300 ppm in experiment [2] and in experiment [1] was greater than 86% each time.

As for `CC(C)CN(C)c1nsc2cccc(Cl)c12` [Compound 44], the mortality at 300 ppm in experiment [1] was greater than 86%.

Regarding `C=CCN(C)c1nsc2cccc(Cl)c12` [Compound 45], in experiment [1], the mortality at 300 ppm was greater than 86%.

For `COC(CN(C)c1nsc2cccc(Cl)c12)OC` [Compound 46], the mortality at 300 ppm in experiment [1] is greater than 86%.

As to `COc1c(Br)ccc2snc(N(C)C)c12` [Compound 48, (5-Bromo-4-methoxy-benzo[d]isothiazol-3-yl)-dimethyl-amine], the mortality at 300 ppm in experiment [2] and in experiment [1] was greater than 86% in each case.

Turning to `CCN(C)c1nsc2cccc(Cl)c12` [Compound 51], the mortality at 300 ppm in experiment [2] and in experiment [1] was greater than 86% in each case.

With `CC(C)N(C)C1=NS(=O)(=O)c2cccc(Cl)c21` [Compound 52], the mortality at 300 ppm in experiment [1] was greater than 86%.

For `CN(CC(F)(F)F)C1=NS(=O)(=O)c2cccc(OC(F)F)c21` [Compound 53], the mortality at 300 ppm in experiment [2] and in experiment [1] was greater than 86% throughout.

Consider `COc1cccc2c1C(N(C)C)=NS2(=O)=O` [Compound 54], for which the mortality at 300 ppm in experiment [1] was greater than 86%.

Take `COc1cccc2c1C(N(C(C)C)C1CC1)=NS2(=O)=O` [Compound 55]: in experiment [1], the mortality at 300 ppm was greater than 86%.

With `CN(CC(F)(F)F)C1=NS(=O)(=O)c2cccc(Cl)c21` [Compound 56], in experiment [1], the mortality at 300 ppm was greater than 86%.

On to `COC(C)CN(C)c1nsc2cccc(Cl)c12` (centres unmarked) [Compound 57], for which the mortality at 300 ppm in experiment [2] and in experiment [1] was greater than 86% throughout.

Take `CCN(CC)c1nsc2cccc(Cl)c12` [Compound 58]: the mortality at 300 ppm in experiment [2] and in experiment [1] was greater than 86% in each case.

Regarding `CCN(C)c1nsc2ccc(I)c(Cl)c12` [Compound 60], the mortality at 300 ppm in experiment [1] is greater than 86%.

Take `CCN(CC)c1nsc2ccc(I)c(Cl)c12` [Compound 61]: the mortality at 300 ppm in experiment [1] is greater than 86%.

With `CCCN(CC1CC1)C1=NS(=O)(=O)c2cccc(F)c21` [Compound 62], the mortality at 300 ppm in experiment [2] and in experiment [1] was greater than 86% each time.

As to `CN(C)C1=NS(=O)(=O)c2cccc(F)c21` [Compound 63], the mortality at 300 ppm in experiment [1] was greater than 86%.

Consider `CCN(C)C1=NS(=O)(=O)c2cccc(F)c21` [Compound 64], for which the mortality at 300 ppm in experiment [2] and in experiment [1] was greater than 86% each time.

Consider `CCN(CC)C1=NS(=O)(=O)c2cccc(F)c21` [Compound 65], for which the mortality at 300 ppm in experiment [1] is greater than 86%.

For `C#CCN(C)C1=NS(=O)(=O)c2cccc(F)c21` [Compound 66], in experiment [1], the mortality at 300 ppm is greater than 86%.

With `CCCN(CCC)C1=NS(=O)(=O)c2cccc(F)c21` [Compound 67], the mortality at 300 ppm in experiment [1] is greater than 86%.

As to `CCCN(C)C1=NS(=O)(=O)c2cccc(F)c21` [Compound 68], the mortality at 300 ppm in experiment [1] is greater than 86%.

Turning to `C=CCN(C)C1=NS(=O)(=O)c2cccc(F)c21` [Compound 69], the mortality at 300 ppm in experiment [1] was greater than 86%.

Take `CC(C)CN(C)C1=NS(=O)(=O)c2cccc(F)c21` [Compound 70]: in experiment [1], the mortality at 300 ppm is greater than 86%.

Regarding `CC(C)N(C1=NS(=O)(=O)c2cccc(F)c21)C1CC1` [Compound 71], the mortality at 300 ppm in experiment [1] is greater than 86%.

For the molecule `C#CCN(C1=NS(=O)(=O)c2cccc(F)c21)C(C)C` [Compound 72], in experiment [1], the mortality at 300 ppm is greater than 86%.

Take `CC(C)N(C)C1=NS(=O)(=O)c2cccc(F)c21` [Compound 73]: the mortality at 300 ppm in experiment [2] and in experiment [1] was greater than 86% in each case.

Consider `CCN(CC)c1n[s+]([O-])c2cccc(Cl)c12` (centres unmarked) [Compound 74], for which the mortality at 300 ppm in experiment [2] and in experiment [1] was greater than 86% in each case.

For `CC(C)CN(C)c1n[s+]([O-])c2cccc(Cl)c12` (centres unmarked) [Compound 77], the mortality at 300 ppm in experiment [1] was greater than 86%.

On to `CCN(C)c1nsc2cccc(F)c12` [Compound 79], for which the mortality at 300 ppm in experiment [1] is greater than 86%.

With `COc1cccc2c1c(N(C)CC(C)C)n[s+]2[O-]` (centres unmarked) [Compound 84], in experiment [1], the mortality at 300 ppm is greater than 86%.

As for `COc1ccc(F)c2c1C(N(C)C)=NS2(=O)=O` [Compound 90], the mortality at 300 ppm in experiment [1] is greater than 86%.

As to `CCC(C)N(O)C1=NS(=O)(=O)c2cccc(Cl)c21` (centres unmarked) [Compound 99], the mortality at 300 ppm in experiment [1] was greater than 86%.

On to `CON(C)C1=NS(=O)(=O)c2cccc(F)c21` [Compound 100], for which the mortality at 300 ppm in experiment [1] was greater than 86%.

With `CC(C)ON(C1=NS(=O)(=O)c2cccc(Cl)c21)C(C)C` [Compound 101], the mortality at 300 ppm in experiment [1] is greater than 86%.

Regarding `CC(C)ON(C)C1=NS(=O)(=O)c2cccc(Cl)c21` [Compound 102], the mortality at 300 ppm in experiment [1] is greater than 86%.

`C#CCON(C)C1=NS(=O)(=O)c2cccc(Cl)c21` [Compound 103]: in experiment [1], the mortality at 300 ppm is greater than 86%.

In the case of `O=S1(=O)N=C(N(O)Cc2ccccc2)c2c(Cl)cccc21` [Compound 104], the mortality at 300 ppm in experiment [1] is greater than 86%.

Take `C#CCON(C1=NS(=O)(=O)c2cccc(Cl)c21)C(C)C` [Compound 105]: the mortality at 300 ppm in experiment [1] was greater than 86%.

Regarding `CCON(CC)C1=NS(=O)(=O)c2cccc(Cl)c21` [Compound 106], the mortality at 300 ppm in experiment [1] is greater than 86%.

For the molecule `C#CCN(OCC)C1=NS(=O)(=O)c2cccc(Cl)c21` [Compound 107], the mortality at 300 ppm in experiment [1] is greater than 86%.

The mortality is the percentage killed.
